These results are taken from patent publication US20240158348A1, “HERBICIDAL CYCLIC AMIDES N-SUBSTITUTED WITH A HALOALKYLSULFONYLANILIDE GROUP” (FMC Corporation, priority 2021, published 2024).

Format in all cases: in vivo
Assay [1] deals with ducksalad (Heteranthera limosa). Description: Test B flooded paddy test, ducksalad. Conditions: 250 g ai/ha, Flood, scale of 0 to 100 where 0 is no effect and 100 is complete control, visually evaluated after 10 to 14 days, read-out: Plant response rating, Ducksalad. How it is done:
Plant species in the flooded paddy test selected from barnyardgrass (Echinochloa crusgalli), ducksalad (Heteranthera limosa), rice (Oryza sativa), and sedge, umbrella (small-flower umbrella sedge, Cyperus difformis) were grown to the 2-leaf stage for testing. At time of treatment, test pots were flooded to 3 cm above the soil surface, treated by application of test compounds directly to the paddy water, and then maintained at that water depth for the duration of the test. Treated plants and controls were maintained in a greenhouse for 10 to 14 days, after which time all species were compared to controls and visually evaluated. Plant response ratings, summarized in Table B, are based on a scale of 0 to 100 where 0 is no effect and 100 is complete control. A dash (-) response means no test result.

Assay [2] relates to ryegrass, Italian (Italian ryegrass, Lolium multiflorum). Description: Test A postemergence, Italian ryegrass. Conditions: post-emergence, 240 h, 0 to 100 scale, 10 days, read-out: Plant response rating, Ryegrass, Italian; for pest or weed control at 31 g/ha: 31 g ai/ha; for pest or weed control at 125 g/ha: 125 g ai/ha. The text has this:
(§1) Seeds of plant species selected from barnyardgrass (Echinochloa crus-galli), blackgrass (Alopecurus myosuroides), corn (Zea mays), foxtail, giant (giant foxtail, Setaria faberi), goosegrass (Eleusine indica), kochia (Bassia scoparia), oat, wild (wild oat, Avena fatua), pigweed, palmer (palmer amaranth, Amaranthus palmeri), pigweed, redroot (redroot pigweed, Amaranthus retroflexus), ragweed (common ragweed, Ambrosia artemisiifolia), ryegrass, Italian (Italian ryegrass, Lolium multiflorum), soybean (Glycine max), and wheat (Triticum aestivum) were planted into a blend of loam soil and sand and treated preemergence with a directed soil spray using test chemicals formulated in a non-phytotoxic solvent mixture which included a surfactant.
(§2) At the same time, plants selected from these crop and weed species and also galium (catchweed bedstraw, Galium aparine) and horseweed (Erigeron canadensis) were planted in pots containing the same blend of loam soil and sand and treated with postemergence applications of test chemicals formulated in the same manner. Plants ranged in height from 2 to 10 cm and were in the one- to two-leaf stage for the postemergence treatment. Treated plants and untreated controls were maintained in a greenhouse for 10 days, after which time all treated plants were compared to untreated controls and visually evaluated for injury. Plant response ratings, summarized in Table A, are based on a 0 to 100 scale where 0 is no effect and 100 is complete control. A dash (-) response means no test result.

Assay [3] relates to ragweed (common ragweed, Ambrosia artemisiifolia). The assay can be described thus: Test A postemergence, ragweed. Conditions: post-emergence, 240 h, 0 to 100 scale, 10 days, read-out: Plant response rating, Ragweed; for pest or weed control at 31 g/ha: 31 g ai/ha; for pest or weed control at 125 g/ha: 125 g ai/ha.
Text: as §1, §2

Assay [4] concerns wheat (Triticum aestivum). Description: Test A postemergence, wheat. As to conditions: post-emergence, 240 h, 0 to 100 scale, 10 days, read-out: Plant response rating, Wheat; for plant injury at 31 g/ha: 31 g ai/ha; for plant injury at 125 g/ha: 125 g ai/ha.
Text: as §1, §2

Assay [5] concerns galium (catchweed bedstraw, Galium aparine). The assay can be described thus: Test A postemergence, galium. Conditions: post-emergence, 240 h, 0 to 100 scale, 10 days, read-out: Plant response rating, Galium; for pest or weed control at 31 g/ha: 31 g ai/ha; for pest or weed control at 125 g/ha: 125 g ai/ha.
Text: as §1, §2

The subject of assay [6] is oat, wild (wild oat, Avena fatua). Description: Test A postemergence, wild oat. As to conditions: 0 to 100 scale, 10 days.
Text: as §1, §2

For assay [7], the system named is corn (Zea mays). The assay can be described thus: Test A preemergence, corn. As to conditions: 0 to 100 scale, 10 days.
Text: as §1, §2

For assay [8], the system named is pigweed, palmer (palmer amaranth, Amaranthus palmeri). Description: Test A preemergence, palmer amaranth. Conditions: 0 to 100 scale, 10 days.
Text: as §1, §2

Assay [9] has as its system goosegrass (Eleusine indica). The assay can be described thus: Test A preemergence, goosegrass. Conditions: 0 to 100 scale, 10 days.
Text: as §1, §2

In assay [10] the test system is pigweed, palmer (palmer amaranth, Amaranthus palmeri). Description: Test A postemergence, palmer amaranth. As to conditions: 0 to 100 scale, 10 days.
Text: as §1, §2

With `C#CCOC1CCN(c2cc(NS(=O)(=O)C(F)(F)F)c(C)cc2C)C1=O` (centres unmarked) [Compound 1, N-[2,4-dimethyl-5-[2-oxo-3-(2-propyn-1-yloxy)-1-pyrrolidinyl]phenyl]-1,1,1-trifluoromethanesulfonamide], the pest or weed control at 250 g/ha in [1] was determined as 80%. Moreover, in assay [2], the pest or weed control at 31 g/ha stood at 70% and the pest or weed control at 125 g/ha was found to be 70%. Also, in [3], the pest or weed control at 31 g/ha came to 60% and the pest or weed control at 125 g/ha turned out to be 80%. For the same molecule, in [4], the plant injury at 31 g/ha is 60% and the plant injury at 125 g/ha was 70%. In addition, in [5], the pest or weed control at 31 g/ha stood at 80% and the pest or weed control at 125 g/ha is 100%.
Take `C=CCOC1CCN(c2cc(NS(=O)(=O)C(F)(F)F)c(C)cc2C)C1=O` (centres unmarked) [Compound 2, N-[2,4-dimethyl-5-[2-oxo-3-(2-propen-1-yloxy)-1-pyrrolidinyl]phenyl]-1,1,1-trifluoromethanesulfonamide]: the pest or weed control at 250 g/ha in [1] was 75%. In addition, the pest or weed control at 31 g/ha in assay [2] worked out at 70%; in assay [3] it was 50%; in [5] it was 80%. The pest or weed control at 125 g/ha is 70% in assay [2], 70% in assay [3] and 100% in assay [5]. For the same molecule, in assay [4], the plant injury at 31 g/ha worked out at 70%. Moreover, the plant injury at 125 g/ha in [4] amounted to 70%.
`Cc1cc(C)c(N2CCC(OC3CC3)C2=O)cc1NS(=O)(=O)C(F)(F)F` (centres unmarked) [Compound 3, N-[5-[3-(cyclopropyloxy)-2-oxo-1-pyrrolidinyl]-2,4-dimethylphenyl]-1,1,1-trifluoromethanesulfonamide]: the pest or weed control at 250 g/ha in assay [1] is 98%. Also, the “Plant response rating, Oat, Wild” value came out at 40 in assay [6] (31 g ai/ha) and 80 in assay [6] (125 g ai/ha). Besides, the “Plant response rating, Corn” value in assay [7] (31 g ai/ha) and in assay [7] (125 g ai/ha) was 90 in each case. Further, the “Plant response rating, Pigweed, Palmer” value is reported as 100 in assay [8] (31 g ai/ha), 100 in [8] (125 g ai/ha), 40 in assay [10] (31 g ai/ha) and 60 in assay [10] (125 g ai/ha). Also, the pest or weed control at 31 g/ha in [2] was found to be 90%; in assay [3], 80%; in assay [5], 70%. In addition, the pest or weed control at 125 g/ha in assay [2] turned out to be 90%; in assay [3], 90%; in assay [5], 100%. For the same molecule, the “Plant response rating, Goosegrass” value in assay [9] (31 g ai/ha) is 70; in [9] (125 g ai/ha) it was 100. For the same molecule, the plant injury at 31 g/ha in [4] came to 80%. In addition, in assay [4], the plant injury at 125 g/ha was found to be 80%.
With `Cc1cc(C)c(N2CCC(OC3CCC3)C2=O)cc1NS(=O)(=O)C(F)(F)F` (centres unmarked) [Compound 4, N-[5-[3-(cyclobutyloxy)-2-oxo-1-pyrrolidinyl]-2,4-dimethylphenyl]-1,1,1-trifluoromethanesulfonamide], the pest or weed control at 250 g/ha in assay [1] worked out at 100%. Further, the “Plant response rating, Oat, Wild” value in [6] (31 g ai/ha) is given as 30; in assay [6] (125 g ai/ha) it was 60. Further, the “Plant response rating, Corn” value in [7] (31 g ai/ha) amounted to 40; in [7] (125 g ai/ha) it was 90. For the same molecule, the “Plant response rating, Pigweed, Palmer” value in assay [8] (31 g ai/ha) was determined as 100; in [8] (125 g ai/ha), 100; in [10] (31 g ai/ha) it was 60; in [10] (125 g ai/ha), 90. Further, the results for the pest or weed control at 31 g/ha in assay [2], in [3] and in [5] were 80%, 70% and 100%, respectively. For the same molecule, the pest or weed control at 125 g/ha in assay [2] was 80%; in assay [3], 90%; in assay [5] it was 100%. The “Plant response rating, Goosegrass” value in assay [9] (31 g ai/ha) and in [9] (125 g ai/ha) was 100 in each case. Moreover, the plant injury at 31 g/ha in assay [4] stood at 50%. Moreover, the plant injury at 125 g/ha in assay [4] worked out at 50%.
Turning to `Cc1cc(C)c(N(COC(=O)C(C)(C)C)S(=O)(=O)C(F)(F)F)cc1N1CCC(OC2CCCC2)C1=O` (centres unmarked) [Compound 5, [[5-[3-(cyclopentyloxy)-2-oxo-1-pyrrolidinyl]-2,4-dimethylphenyl][(trifluoromethyl)sulfonyl]amino]methyl 2,2-dimethylpropanoate], the pest or weed control at 250 g/ha in assay [1] was found to be 95%. The “Plant response rating, Oat, Wild” value in assay [6] (31 g ai/ha) is 20; in assay [6] (125 g ai/ha), 30. The figures for the “Plant response rating, Corn” value in [7] (31 g ai/ha) and in assay [7] (125 g ai/ha) were 0 and 20, respectively. Further, the “Plant response rating, Pigweed, Palmer” value in assay [8] (31 g ai/ha) is 10; in [8] (125 g ai/ha), 50; in assay [10] (31 g ai/ha), 20; in assay [10] (125 g ai/ha) it was 70. Further, the pest or weed control at 31 g/ha in assay [2] turned out to be 20%; in assay [3], 60%; in assay [5] it was 60%. The pest or weed control at 125 g/ha in assay [2] came to 40%; in assay [3] it was 80%; in assay [5], 90%. The “Plant response rating, Goosegrass” value in assay [9] (31 g ai/ha) is listed as 10; in [9] (125 g ai/ha), 90. In addition, in assay [4], the plant injury at 31 g/ha was 0%. Also, the plant injury at 125 g/ha in assay [4] came out at 50%.
On to `Cc1cc(C)c(N2CCC(OC3CCCC3)C2=O)cc1NS(=O)(=O)C(F)(F)F` (centres unmarked) [Compound 6, N-[5-[3-(cyclopentyloxy)-2-oxo-1-pyrrolidinyl]-2,4-dimethylphenyl]-1,1,1-trifluoromethanesulfonamide], for which, in [1], the pest or weed control at 250 g/ha was found to be 85%. Also, the “Plant response rating, Oat, Wild” value in [6] (31 g ai/ha) is 0; in assay [6] (125 g ai/ha), 20. In addition, the entries for the “Plant response rating, Corn” value in assay [7] (31 g ai/ha) and in assay [7] (125 g ai/ha) were 30 and 80, respectively. Moreover, the “Plant response rating, Pigweed, Palmer” value in [8] (31 g ai/ha) turned out to be 70; in assay [8] (125 g ai/ha), 100; in assay [10] (31 g ai/ha) it was 50; in assay [10] (125 g ai/ha), 60. The results for the pest or weed control at 31 g/ha in assay [2], in [3] and in assay [5] were 0%, 60% and 80%, respectively. The values for the pest or weed control at 125 g/ha in assay [2], in [3] and in [5] were 50%, 90% and 90%, respectively. The “Plant response rating, Goosegrass” value in assay [9] (31 g ai/ha) stood at 90; in [9] (125 g ai/ha), 100. Also, the plant injury at 31 g/ha in assay [4] was found to be 60%. Also, in assay [4], the plant injury at 125 g/ha was determined as 60%.
As for `Cc1cc(C)c(N(COC(=O)C(C)(C)C)S(=O)(=O)C(F)(F)F)cc1N1CCC(OC2CC2)C1=O` (centres unmarked) [Compound 7, [[5-[3-(cyclopropyloxy)-2-oxo-1-pyrrolidinyl]-2,4-dimethylphenyl][(trifluoromethyl)sulfonyl]amino]methyl 2,2-dimethylpropanoate], the pest or weed control at 250 g/ha in assay [1] turned out to be 95%. The figures for the “Plant response rating, Oat, Wild” value in assay [6] (31 g ai/ha) and in assay [6] (125 g ai/ha) were 30 and 70, respectively. Further, the “Plant response rating, Corn” value is given as 0 in [7] (31 g ai/ha) and 50 in assay [7] (125 g ai/ha). Besides, the “Plant response rating, Pigweed, Palmer” value in assay [8] (31 g ai/ha) is recorded as 50; in [8] (125 g ai/ha), 100; in [10] (31 g ai/ha), 30; in assay [10] (125 g ai/ha) it was 60. The pest or weed control at 31 g/ha in assay [2] worked out at 50%; in assay [3] it was 90%; in [5] it was 90%. The pest or weed control at 125 g/ha in assay [2] turned out to be 90%; in [3], 90%; in assay [5], 100%. For the same molecule, the “Plant response rating, Goosegrass” value in [9] (31 g ai/ha) worked out at 80; in [9] (125 g ai/ha), 100. For the same molecule, in assay [4], the plant injury at 31 g/ha amounted to 30%. Further, the plant injury at 125 g/ha in assay [4] amounted to 60%.
